Values of other authors, collected in US20200022905A1 (priority 2009, published 2020).
Read-outs that look alike come from different tables or passages of the source.

Columns and labels:
[1] = especially by non-smokers
[2] = not given; remark: listed apart in the source

## CN1CCCC1c1cccnc1 (stereo not shown) [Nicotine]
pH 7.4
  ratio of non-ionized form: 30%
pH 8.5
  ratio of non-ionized form: 80%
[1]
  dose after which serious toxic reactions may be experienced: 4 to 8 mg
[2]
  time to get to the brain after smoke inhalation: ten to twenty
